Drawing on US10508088B2, “Methods using HDAC11 inhibitors” (FORMA Therapeutics, Inc., priority 2016, dated 2019), this text covers IC50 for 15 molecules.

The IC50 is the concentration that inhibits the measured activity by half.

Chain of Recombinant N-terminal GST tag full-length human HDAC11 (Q96DB2 whole entry): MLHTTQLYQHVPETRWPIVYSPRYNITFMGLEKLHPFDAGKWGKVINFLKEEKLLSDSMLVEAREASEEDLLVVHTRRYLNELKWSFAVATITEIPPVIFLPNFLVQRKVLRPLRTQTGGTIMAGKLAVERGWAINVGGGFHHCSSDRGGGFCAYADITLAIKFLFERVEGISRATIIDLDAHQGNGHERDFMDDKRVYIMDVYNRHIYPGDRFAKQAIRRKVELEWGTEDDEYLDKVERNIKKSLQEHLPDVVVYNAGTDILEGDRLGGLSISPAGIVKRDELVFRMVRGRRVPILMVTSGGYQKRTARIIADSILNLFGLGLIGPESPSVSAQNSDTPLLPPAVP

The assay concerns the target Recombinant N-terminal GST tag full-length human HDAC11 (Homo sapiens (Human), UniProt Q96DB2). As to the kind of experiment: Probe binding HDAC11 assay, time resolved fluorescence (TRF). To be noted: read-out: HDAC11 IC50 Range. How it is done: The probe binding HDAC11 assay was performed using a time resolved fluorescence (TRF) assay format. Recombinant N-terminal GST tag full-length human HDAC11 was expressed and purified from baculovirus in Sf9 insect cells (SignalChem, # H93-30G-1000). Each assay was performed in 1536 black well microplates (Corning, #3936) in a final volume of 8 μL in assay buffer containing 50 mM HEPES (pH 7.5), 50 mM KCl, 50 mM NaCl, 0.5 mM GSH (L-Glutathione reduced, Sigma #G4251), 0.03% BGG (0.22 μM filtered, Sigma, #G7516-25G), and 0.01% Triton X-100 (Sigma, #T9284-10L). 100 nL of 10-point, 3-fold serial dilution in DMSO was pre-dispensed into respective wells of 1536 assay plates for a final test concentration range of 25 μM to 1.3 nM respectively. The final concentration in the assay of HDAC11 and probe (a fluorescein labeled HDAC 11 inhibitor) was 2.5 nM and 20 nM respectively. 4 μL of 2× probe and 2× anti-GST Terbium (Cisbio, #61GSTXLB) was added to assay plates followed by 4 μL of 2×HDAC11. Plates were incubated for 16 hours at room temperature before time resolved fluorescence was read on the Envision (Excitation at 340 nm, and Emission at 485 nm and 535 nm, Perkin Elmer).
Data from HDAC11 Assays were reported as percent inhibition (inh) compared with control wells based on the following equation: % inh=1−((FLU−AveLow)/(AveHigh−AveLow)) where FLU=measured time resolved fluorescence. AveLow=average time resolved fluorescence of no enzyme control (n=32). AveHigh=average time resolved fluorescence of DMSO control (n=32). IC50 values were determined by curve fitting of the standard 4 parameter logistic fitting algorithm included in the Activity Base software package: IDBS XE Designer Model205. Data is fitted using the Levenburg Marquardt algorithm.
With `COc1cc2nc(Nc3cccc(C(=O)NO)c3)[nH]c2cc1Cl` [Example 33-19, 3-((6-chloro-5-methoxy-1H-benzo[d]imidazol-2-yl)amino)-N-hydroxybenzamide], the IC50 lay in the range of 0.5 to 1 µM.

As for `N#Cc1cc2nc(Cc3cccc(C(=O)NO)c3)[nH]c2cc1C(F)(F)F` [Example 27-1, 3-((5-cyano-6-(trifluoromethyl)-1H-benzo[d]imidazol-2-yl)methyl)-N-hydroxybenzamide], the IC50 is < 0.5 µM.

As for `O=C(NO)c1cccc(Nc2nc3cc(Cl)c(C(F)(F)F)cc3[nH]2)c1` [Example 33-6, 3-((5-chloro-6-(trifluoromethyl)-1H-benzo[d]imidazol-2-yl)amino)-N-hydroxybenzamide], the IC50 is < 0.5 µM.

For the molecule `O=C(NO)c1cccc(Nc2nc3cc(F)c(Br)cc3[nH]2)c1` [Example 33-16, 3-((6-bromo-5-fluoro-1H-benzo[d]imidazol-2-yl)amino)-N-hydroxybenzamide], the IC50 was < 0.5 µM.

Consider `O=C(NO)c1cccc(Cc2nc3cc(Cl)c(Cl)cc3[nH]2)c1` [Example 27-2, 3-((5,6-dichloro-1H-benzo[d]imidazol-2-yl)methyl)-N-hydroxybenzamide], for which the IC50 is < 0.5 µM.

Consider `O=C(NO)c1cccc(Nc2nc3cc(Cl)ccc3[nH]2)c1` [Example 33-20, 3-((5-chloro-1H-benzo[d]imidazol-2-yl)amino)-N-hydroxybenzamide], for which the IC50 was > 1 µM.

For `O=C(NO)c1cccc(Nc2nc3cc(C(F)(F)F)c(-c4ccoc4)cc3[nH]2)c1` [Example 36-20, 3-((6-(furan-3-yl)-5-(trifluoromethyl)-1H-benzo[d]imidazol-2-yl)amino)-N-hydroxybenzamide], the IC50 was < 0.5 µM.

In the case of `CS(=O)(=O)c1cc2nc(Nc3cccc(C(=O)NO)c3)[nH]c2cc1C#N` [Example 6-1, 3-(5-cyano-6-(methylsulfonyl)-1H-benzo[d]imidazol-2-ylamino)-N-hydroxybenzamide], the IC50 fell in the range of 0.5 to 1 µM.

Regarding `O=C(NO)c1cccc(Nc2nc3cc(C(F)(F)F)c(-c4cccnc4)cc3[nH]2)c1` [Example 36-2, N-hydroxy-3-((6-(pyridin-3-yl)-5-(trifluoromethyl)-1H-benzo[d]imidazol-2-yl)amino)benzamide], the half-inhibitory concentration (IC50) was < 0.5 µM.

In the case of `O=C(NO)c1cccc(Nc2nc3cc(F)c(Cl)cc3[nH]2)c1` [Example 33-1, 3-((6-chloro-5-fluoro-1H-benzo[d]imidazol-2-yl)amino)-N-hydroxybenzamide], the IC50 was < 0.5 µM.

Turning to `NCCCCCn1c(Nc2cccc(C(=O)NO)c2)nc2cc(Cl)c(Cl)cc21` [Example 22-1, 3-((1-(5-aminopentyl)-5,6-dichloro-1H-benzo[d]imidazol-2-yl)amino)-N-hydroxybenzamide], the IC50 is < 0.5 µM.

Regarding `O=C(NO)c1cccc(Nc2nc3cc(C(F)(F)F)c(-c4cccc(C(=O)N5CCOCC5)c4)cc3[nH]2)c1` [Example 36-14, N-hydroxy-3-((6-(3-(morpholine-4-carbonyl)phenyl)-5-(trifluoromethyl)-1H-benzo[d]imidazol-2-yl)amino)benzamide], the IC50 is < 0.5 µM.

Turning to `O=C(NO)c1cccc(Nc2nc3cc(Cl)c(Cl)cc3[nH]2)c1` [Example 33-14, 3-((5,6-dichloro-1H-benzo[d]imidazol-2-yl)amino)-N-hydroxybenzamide], the IC50 was < 0.5 µM.

For `CC(C)n1c(Nc2cccc(C(=O)NO)c2)nc2cc(C(F)(F)F)c(C#N)cc21` [Example 14-1, 3-(6-cyano-1-isopropyl-5-(trifluoromethyl)-1H-benzo[d]imidazol-2-ylamino)-N-hydroxybenzamide], the IC50 was < 0.5 µM.

`CS(=O)(=O)c1cc2nc(Nc3cccc(C(=O)NO)c3)[nH]c2cc1C(F)(F)F` [Example 7-1, N-hydroxy-3-(6-(methylsulfonyl)-5-(trifluoromethyl)-1H-benzo[d]imidazol-2-ylamino)benzamide]: the IC50 is < 0.5 µM.
